According to patent US12606529B2, “Sulfur and amide tropolone inhibitors of nucleotidyl transferases and uses therefor” (Saint Louis University, priority 2019, dated 2026):
≈ marks a conversion by molar mass, not a printed value. Read-outs that look alike come from different tables or passages of the source.

Assays:
[1] = test system: C. neoformans var. grubii, KN99; test: C. neoformans growth inhibition assay (limiting dilution); assay type: cell-based, Cryptococcus neoformans
In short: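 Starting OD650 0.001 in YNB (0.2% dextrose, 50 mM MOPS, pH 7.0) with 1% DMSO; static incubation 48 h at 35° C, then shaken and read at OD650. Growth expressed as percent of DMSO control; MIC is the lowest concentration giving 80% inhibition, triplicates over at least two independent assays.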

[2] = test system: HSV-1; test: Anti-HSV-1 replication assay (Vero cells, plaque titer); assay type: cell-based, herpes simplex virus 1; conditions: for log reduction at 1 µM / log reduction at 5 µM / log reduction at 0.33 µM: Human alphaherpesvirus 1, Vero; for log reduction at 1 µM: compound at 1 μM, read-out: HSV-1 suppression 1 μM; for log reduction at 5 µM: compound at 5 μM, read-out: HSV-1 suppression 5 μM; for log reduction at 0.33 µM: compound at 0.33 μM, read-out: HSV-1 suppression 0.33 μM
[3] = in vitro; conditions: human, HepDES19 cells
[4] = test system: HBV replication; test: HBV replication inhibition in HepDES19 cells (strand-preferential qPCR); conditions: Hepatitis B virus, HBV replication, HepDES19 cells
Experimental: Cells used for toxicity and HBV studies.
HBV replication inhibition studies. HepDES19 cells were seeded in 96-well plates at 4×10^4 cells per well in the absence of tetracycline. Test compounds in a final DMSO concentration of 1% were applied to cells 48 hours after induction of HBV replication and cells were incubated with compounds for 72 hours. Cells were washed in 200 μL of phosphate buffered saline (PBS) and lysed in 150 μL of core lysis buffer (10 mM Tris pH 7.4, 1% Tween20, 150 mM NaCl). Cells were incubated at room temperate on an orbital shaker at 350 rpm for 40 minutes. Cell lysate was transferred to a 96 well polymerase chain reaction (PCR) plate and centrifuged at 3300×g for 5 minutes. The supernatant (50 μL) from the cell lysate was transferred to a 96-well PCR plate and mixed with 20 units of micrococcal nuclease and 100 μM CaCl2. The lysate was incubated for 1 hour at 37° C., and then the nuclease was inactivated at 70° C. for ten minutes. Qiagen protease (0.005 Anson units) was added to the lysate and the mixture was incubated overnight. Qiagen protease was then inactivated at 95° C. for ten minutes.
The crude lysate was used as the template for strand-preferential quantitative polymerase chain reaction (q-PCR) analysis. Quantitative PCR was performed with 40 cycles of 95° C. for 15 s and 60° C. for 1 minute employing the Kappa Probe Force universal PCR master mix.

[5] = target: T1, human RNaseH1 (Homo sapiens, UniProt O60930); test: Biochemical inhibition of human RNaseH1 activity
T1 sequence (O60930 1-286): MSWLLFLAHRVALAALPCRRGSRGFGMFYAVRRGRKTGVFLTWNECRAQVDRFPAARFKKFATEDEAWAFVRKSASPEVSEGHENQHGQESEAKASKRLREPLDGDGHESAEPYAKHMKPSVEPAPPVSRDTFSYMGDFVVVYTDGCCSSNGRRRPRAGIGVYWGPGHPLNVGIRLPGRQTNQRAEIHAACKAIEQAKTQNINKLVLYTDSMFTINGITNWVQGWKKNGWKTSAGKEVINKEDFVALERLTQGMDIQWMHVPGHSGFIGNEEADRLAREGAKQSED
In short: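 Human enzyme (0.3 μg) with 100 nM RNA:DNA molecular-beacon substrate, 50 mM HEPES pH 8.0, 100 mM NaCl, 2 mM TCEP, compounds 0 to 500 μM, 5% DMSO; started with 5 mM MgCl2, fluorescence read at 37° C. HBV enzyme (C-terminally truncated MBP-HRHgtCΔ5) run in FRET format, monitored 90 min at 37° C., initial rates calculated.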

[6] = test system: HSV-2; test: Anti-HSV-2 replication assay (Vero cells, plaque titer); assay type: cell-based, herpes simplex virus 2; conditions: Table 3 sulfur compounds; compound at 5 μM
Experimental: HSV strains and cells used for HSV studies. […] HSV-1 and HSV-2 are de-identified clinical isolates from the Saint Louis University Hospital. Stocks were prepared after a single passage in cell culture and were titered by standard plaque assay (Knipe and Spang, 1982). Wild-type HSV-2 was laboratory strain 333. The TK-deficient mutant of HSV-2 strain 333, ΔTK−, contains a 180-bp KpnI-KpnI deletion in the UL23 open reading frame that abrogates TK activity (McDermott, et al, 1984). ΔTK− was the generous gift of Jim Smiley. Virus stocks were grown and titered on Vero cells (Morrison and Knipe, 1996).
Anti-HSV-1 and —HSV-2 replication assay. Compounds to be screened were diluted in PBS supplemented to contain 2% newborn calf serum and 1% glutamine and added in 100 μL volume to confluent cell monolayers in 24-well cluster plates Immediately thereafter HSV-1 and HSV-2, diluted in the supplemented PBS medium, were added to the wells in 50 μl volume such that the final concentration of compound was 50 μM and 5 μM and the multiplicity of infection was 0.1. The plates were incubated at 37° C. for 1 hour and then virus-containing inoculum was removed and the wells were washed once in PBS. Compounds, diluted to 50 μM and 5 μM in DMEM supplemented to contain 2% newborn calf serum and 1% each penicillin/streptomycin, were added at 0.5 mL/well. Plates were incubated at 37° C. an additional 23 hr, and then the plates were visually inspected through a phase contrast microscope for cytopathic effect, and for toxic effect. […] The entire contents of each well were collected by scraping. Samples were frozen at −80° C., and then subsequently thawed, sonicated, and infectious virus titer was determined by standard plaque assay on Vero cell monolayers. Because the compounds were dissolved at 10 mM in 100% DMSO, equivalent dilutions of DMSO were added to additional wells as a control for effects of the diluent. Each experiment was repeated once.

[7] = test system: HepDES19 cells; conditions: Table 2 amides, MTT
[8] = target: HBV RNaseH (MBP-HRHgtCΔ5) (Hepatitis B virus genotype C subtype ayr, UniProt Q69028); test: Biochemical inhibition of HBV RNaseH (FRET-based RNaseH assay); set-up: a genotype C isolate which lacks the C-terminal 35 amino acids of the HBV RNaseH domain that are predicted to be unstructured; made in house; conditions: HBV RNaseH IC50 (μM), Table 2 amides
Experimental: Biochemical inhibition of human RNaseH1 activity. Quantitative inhibition of the human RNaseH1 in the biochemical assays was assessed using a molecular beacon assay as described previously (Edwards et al., 2017). Recombinant human RNaseH 1 (0.3 μg) was incubated with 100 nM RNA:DNA substrate, 50 mM HEPES pH 8.0, 100 mM NaCl, 2 mM Tris(2-carboxyethyl)phosphine hydrochloride (TCEP), 0.05% Tween20, 5 units of RNaseOut, test compounds (0 to 500 μM), and 5% DMSO in a 100 μL reaction volume. The substrate was formed by annealing a complementary RNA oligonucleotide to a hairpin DNA oligonucleotide to hold the hairpin DNA oligonucleotide in an open conformation. The DNA oligonucleotide has a 5′ fluorescein reporter and a 3′ black hole quencher. […] Reactions were initiated with 5 mM MgCl2 and fluorescence was read using a Synergy HTS multi-mode plate reader at 37° C. […] Quantitative inhibition of the human RNaseH1 in biochemical assays was assessed using a FRET-based RNaseH assay under conditions previously reported for an RNaseH molecular beacon assay (Edwards et al., 2017). […] Cleavage of the RNA strand released the fluorescein from quenching, increasing fluorescence. Reactions were monitored for 90 min at 37° C. in a plate reader and initial reaction rates were calculated. […]

[9] = test system: E. coli; test: Bacterial growth inhibition (E. coli); assay type: cell-based; conditions: Escherichia coli
[10] = Cryptococcus neoformans, 48 h, Table 3 sulfur compounds, 48 h, 35° C., read-out: C. neoformans MIC80
[11] = Table 3 sulfur compounds, values separated by / are repeats
[12] = CC50, Table 3 sulfur compounds, MTT
[13] = HepDES19, read-out: HBV EC50, Table 3 sulfur compounds
[14] = Table 3 sulfur compounds, read-out: Hu RNaseH IC50
[15] = Table 2 amides, 48 h, 35° C., tested 0.19 to 50 μM, read-out: C. neoformans MIC80
[16] = Table 2 amides, values separated by / are repeats
[17] = Cryptococcus neoformans, 48 h, Table 2 amides, 48 h, 35° C., tested 0.19 to 50 μM, read-out: C. neoformans MIC80
[18] = Table 2 amides, read-out: HuRH1 IC50

Sequence of HBV RNaseH (MBP-HRHgtCΔ5) (Q69028 691-808, stated change not applied): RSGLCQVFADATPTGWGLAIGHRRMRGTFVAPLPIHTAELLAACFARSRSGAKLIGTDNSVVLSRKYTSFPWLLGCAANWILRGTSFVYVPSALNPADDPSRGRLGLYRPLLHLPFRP

| SMILES | MIC80 [1, 10] | log reduction at 1 µM [2, 11] | log reduction at 5 µM [2, 11] | CC50 at 24 h [3, 12] | EC50 [4, 13] | IC50 [5, 14] | HSV-2 suppression 5 μM [6] | log reduction at 5 µM [2, 16] | MIC80 [1, 17] | CC50 at 24 h ([3]; CC50 (μM), Table 2 amides, MTT) | IC50 [5, 18] | other results |
| --- | --- | --- | --- | --- | --- | --- | --- | --- | --- | --- | --- | --- |
| O=c1c(O)cccc(Sc2cccc3ccccc23)c1O [compound 839] | 17 µM (≈ 5.04 µg/mL) | -0.1 | 3.21 | 35.1 µM | 50 µM | 201 µM | 4.2 log10 | – | – | – | – | – |
| Cc1cc(O)c(=O)c(O)cc1C(=O)N1CCNCC1 [compound 391] | – | – | – | – | – | – | – | 0.29 | – | – | – | MIC80 [1, 15]: 40 µM (≈ 10.6 µg/mL); CC50 at 24 h ([3]; CC50): > 20 µM; EC50 ([4]; HepDES19, 72 h, Table 2 amides, plus-polarity DNA, 72 h): 0.46 ± 0.2 µM; CC50 [7]: 37.5 ± 4.8 µM |
| CCCCCCSc1cccc(O)c(=O)c1O [compound 840] | 1 µM (≈ 0.254 µg/mL) | 1.52 | 3.69 | 21.5 µM | 50 µM | 72.8 µM | 5.59 log10 | – | – | – | – | MIC80 ([1]; Cryptococcus neoformans, read-out: MIC80 against C. neoformans): ≤ 1 µM; log reduction at 0.33 µM [2, 11]: 0.271 |
| Cc1ccc(Sc2cccc(O)c(=O)c2O)cc1 [compound 838] | 1 µM (≈ 0.26 µg/mL) | 0.05 | 5.33 | 18.6 µM | 17 µM | 100 µM | 5.09 log10 | – | – | – | – | – |
| Cc1cc(O)c(=O)c(O)cc1C(=O)N1CCNCC1 [compound 404] | – | – | – | – | – | – | – | – | – | – | – | MIC80 [1, 15]: 9 µM (≈ 2.38 µg/mL); Reduction of HSV-1 titers / suppression of HSV-1 replication at 5 μM ([2]; 5 μM, plaque forming units (PFU)/ml): undetectable; CC50 [7]: 4.5 ± 1.4 µM |
| Cc1cc(O)c(=O)c(O)cc1C(=O)NCc1ccc(OC(F)(F)F)cc1 [compound 804] | – | – | – | – | – | – | – | 1.75 | 6.8 µM (≈ 2.51 µg/mL) | 30.1 ± 18 µM | 802 ± 397 µM | log reduction at 0.33 µM ([2]; Table 2 amides): 0.191; log reduction at 1 µM [2, 16]: 0.292; IC50 [8]: 285 ± 226 µM |
| Cc1cc(O)c(=O)c(O)cc1C(=O)Nc1ccc(OCc2ccccc2)cc1 [compound 837] | – | – | – | – | – | – | – | 4.09 | 4.5 µM (≈ 1.7 µg/mL) | 8.7 ± 3.4 µM | 625 ± 451 µM | IC50 [8]: 118 ± 88.7 µM |
| Cc1cc(O)c(=O)c(O)cc1C(=O)NCCc1ccccc1 [compound 710] | – | – | – | – | – | – | – | 1.69 | 2.5 µM (≈ 0.748 µg/mL) | 4.5 ± 3 µM | 32.3 ± 3.2 µM | log reduction at 1 µM [2, 16]: 0.15; MIC80 [9]: 30 µM (≈ 8.98 µg/mL) |
